Results: US7807705B2, “Potent indole-3-carbinol-derived antitumor agents” (The Ohio State University Research Foundation, priority 2007, dated 2010)
Entries after “also recorded” stand apart in the source; their conditions may differ.

Assays:
phospho-p38 = test: Intratumoral biomarker immunoblotting of PC-3 tumor homogenates; type: in vivo, human; conditions: intraperitoneal, 42 days
Procedure: (§1) In vivo studies. […] Body weights were measured weekly.

Bcl-xL = test: as above; type: in vivo, human; conditions: intraperitoneal, 42 days
Procedure: as §1

phospho-Akt = test: as above; type: in vivo, human; conditions: intraperitoneal, 42 days
Procedure: as §1

p27 = test: as above; type: in vivo, human; conditions: intraperitoneal, 42 days
Procedure: as §1

cyclin D1 = test: as above; type: in vivo, human; conditions: intraperitoneal, 42 days
Procedure: as §1

[1] = Maximum tolerated dose determination; type: in vivo, athymic nude mice; conditions: intraperitoneal, daily for 14 days, doses up to 25 mg/kg (tested 5, 10, 25, 50 mg/kg/day)
PPARγ = target: T1, PPARγ (Homo sapiens, UniProt P37231); test: PPRE-luciferase reporter assay for PPARγ activation in PC-3 cells; type: cell-based; conditions: even at 20 μM, 24 h
T1 construct: PC-3 cells were transfected with PPRE-X3-TK-Luc; endogenous in cells; host or cells: PC-3 cells
T1 sequence (P37231 1-505): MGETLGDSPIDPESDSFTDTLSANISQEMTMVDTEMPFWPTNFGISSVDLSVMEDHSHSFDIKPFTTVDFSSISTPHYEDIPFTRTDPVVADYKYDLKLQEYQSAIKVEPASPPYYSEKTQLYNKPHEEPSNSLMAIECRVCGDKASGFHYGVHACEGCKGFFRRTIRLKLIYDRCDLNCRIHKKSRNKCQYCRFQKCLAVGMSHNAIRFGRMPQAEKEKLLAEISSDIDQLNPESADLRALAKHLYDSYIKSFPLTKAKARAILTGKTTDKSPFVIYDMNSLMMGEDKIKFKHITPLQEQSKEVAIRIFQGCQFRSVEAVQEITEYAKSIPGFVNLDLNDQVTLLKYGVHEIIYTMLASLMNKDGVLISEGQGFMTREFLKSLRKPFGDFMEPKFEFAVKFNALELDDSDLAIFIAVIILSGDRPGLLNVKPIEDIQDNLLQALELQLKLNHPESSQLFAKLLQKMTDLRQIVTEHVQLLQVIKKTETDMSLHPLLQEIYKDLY
Procedure: Luciferase assay for PPARg activation. The PPRE-x3-TK-Luc reporter vector contains three copies of the PPAR-response element (PPRE) upstream of the thymidine kinase (tk) promoter-luciferase fusion gene and was kindly provided by Dr. Bruce Spiegelman (Harvard University, Cambridge, Mass.). PC-3 cells were cultured in a 100 mm plate in phenol red-free RPMI 1640 medium containing 10% FBS until the achieved 50-70% confluency, after which they were transfected with 6 μg of the plasmid using Fugene 6 (Roche, Indianapolis, Ind.) in RPMI 1640 medium. For each transfection, herpes simplex virus-thymidine kinase (HSV-TK) promoter-driven Renilla luciferase (phRL-TK) was used as an internal control for normalization. Following transfections, cells were treated as indicated, in RPMI 1640 medium containing 10% charcoal-stripped FBS. Cells were then collected into Passive Lysis Buffer (Promega), and luciferase activities in the cell lysates were determined by luminometry. All transfection experiments were carried out in triplicate plates and repeated separately at least three times.

[2] = system: Normal human prostate epithelial cells (PrEC); test: MTT cell viability assay; type: cell-based
From the text: (§2) Cell Culture. LNCaP androgen-responsive (p53^+/+) and PC-3 androgen-nonresponsive (p53^−/−) human prostate cancer cells were purchased from the American Type Tissue Collection (Manassas, Va.) and cultured in RPMI 1640 medium (Gibco, Grand Island, N.Y.) supplemented with 10% fetal bovine serum (FBS; Gibco).—Normal human prostate epithelial cells (PrEC) were obtained from Cambrex Bioscience-Walkersville (Walkersville, Md.), and maintained in the vendor's recommended defined prostate epithelial growth medium. All cell types were cultured at 37° C. in a humidified incubator containing 5% CO2.
(§3) Cell viability analysis. The effect of test agents on cell viability was assessed by using the MTT [3-(4,5-dimethylthiazol-2-yl)-2,5-diphenyl-2H-tetrazolium bromide] assay in six to twelve replicates. Cancer cells and PrECs were grown in 5% FBS-supplemented RPMI 1640 medium or 5% FBS-supplemented prostate epithelial growth medium, respectively, in 96-well, flat-bottomed plates for 24 h, and then exposed to various concentrations of test agents in the same medium for the indicated time intervals. […] Absorbance at 570 nm was determined on a plate reader.
(§4) These agents (A1-A24) were evaluated for their ability to reduce cell viability of PC-3 (p53^−/−) androgen-nonresponsive and LNCaP (p53^+/+) androgen-responsive prostate cancer cells after 24-h exposure by MTT assay.

PC-3 cells [3] = test: Cell proliferation by direct cell counting (Coulter counter); type: cell-based, human
Procedure: (§5) Cell Proliferation. PC-3 and LNCaP cells were seeded into six-well plates at approximately 200,000 cells/well in 5% FBS-containing RPMI 1640 medium. Following a 24 h attachment period, cells were treated in triplicate with the indicated concentrations of test agent or DMSO vehicle in 5% FBS-containing RPMI-1640 medium. At different time intervals, cells were harvested by trypsinization, and numerated using a Coulter counter (Model Z1 D/T, Beckman Coulter, Fullerton, Calif.).
(§6) In line with the cell viability data, a concentration of at least 300 μM was required for indole-3-carbinol to attain the same level of efficacy.

LNCaP cells = test: as above; type: cell-based, human
Procedure: as §5, §6

[4] = system: Akt, GSK3β, Bad, ERKs, JNK, p38, Bcl-2 family members, survivin, NF-kB, cyclin D1, p27, p21 in PC-3 cells; test: Immunoblotting of signaling targets in PC-3 cells; type: cell-based, human; conditions: 48 h; for expression of Bax, p27, and p21: dose-dependent
Procedure: Immunoblotting. Biomarkers of apoptosis and signaling components associated with cell survival and growth arrest were assessed by Western immunoblotting as follows. Treated cells were washed in PBS, resuspended in SDS sample buffer, sonicated for 5 sec, and then boiled for 5 min. After brief centrifugation, equivalent amounts of proteins from the soluble fractions of cell lysates were resolved in 10% SDS-polyacrylamide gels on a Minigel apparatus, and transferred to a nitrocellulose membrane using a semi-dry transfer cell. The transblotted membrane was washed three times with TBS containing 0.05% Tween 20 (TBST). After blocking with TBST containing 5% nonfat milk for 60 min, the membrane was incubated with an appropriate primary antibody at 1:500 dilution (with the exception of anti-b-actin antibody, 1:2,000) in TBST-5% low fat milk at 4° C. for 12 h, and was then washed three times with TBST. The membrane was probed with goat anti-rabbit or anti-mouse IgG-horseradish peroxidase conjugates (1:2,500) for 90 min at room temperature, and washed three times with TBST. The immunoblots were visualized by enhanced chemiluminescence.
Indole-3-carbinol has been reported to target an array of signaling pathways to induce apoptosis and cell cycle arrest in cancer cells. […] These targets comprised three categories of biomarkers: a) phosphorylation of signaling kinases: Akt and its downstream effector GSK3β, ERKs, JNKs, and p38; b) phosphorylation/expression of Bcl-2 family members: Bad, Bax, Bcl-2, Bcl-xL, and Mcl-1; c) expression of other apoptosis and cell-cycle regulatory proteins: survivin, NF-kB/RelA, cyclin D1, p27, and p21 (FIG. 4).

[5] = NMR analysis of acid stability; type: physicochemical; conditions: CD3OD plus deuterium-labeled HCl, room temperature; indole-3-carbinol t=5 min, OSU-A9 up to 8 h
Procedure: Nuclear magnetic resonance (NMR) analysis of acid stability. […] To each solution was added 100 μl of deuterium-labeled HCl, and NMR spectra were recorded in a 300 MHz NMR spectrometer at room temperature at different time intervals.
Individual compounds (20 mg) were dissolved in 1 ml of deuterium-labeled methanol (CD3OD).

[6] = Tolerability in PC-3 tumor-bearing mice (body weight, necropsy, histology, blood); type: in vivo, athymic nude mice; conditions: 10 or 25 mg/kg daily, intraperitoneal, 42 days
Procedure: as §1

PC-3 cells [7] = test: Apoptosis analysis (morphology, caspase-3 activation and PARP cleavage by Western blot); type: cell-based, human; conditions: for caspase-3 activation and PARP cleavage: 48 hours, Western blot
Procedure: Apoptosis analysis. Drug-induced apoptotic cell death was assessed by Western blot analysis of caspase-3 activation and poly-(ADP-ribose)polymerase (PARP) cleavage. […], washed with ice-cold PBS, and resuspended in lysis buffer containing 20 mM Tris-HCl, pH 8, 137 mM NaCl, 1 mM CaCl2, 10% glycerol, 1% Nonidet P-40, 0.5% deoxycholate, 0.1% SDS, 100 μM 4-(2-aminoethyl)benzenesulfonyl fluoride, leupeptin at 10 μg/mL, and aprotinin at 10 μg/mL. Soluble cell lysates were collected after centrifugation at 10,000 g for 5 min. Equivalent amounts of proteins (60-100 μg) from each lysate were resolved in 8% SDS-polyacrylamide gels. Proteins were transferred to nitrocellulose membranes, and analyzed by immunoblotting with antibodies against caspase-3 or PARP as described below.
Drug-treated cells became shrunken, rounded, and detached from the dish.

androgen receptor (AR) = test: Immunoblotting of AR expression in LNCaP cells; type: cell-based, human; conditions: highest doses examined (data not shown)
[8] = system: PC-3 (p53−/−) androgen-nonresponsive prostate cancer cells; test: MTT cell viability assay; type: cell-based, human; conditions: PC-3 cells, 24-h exposure
From the text: as §2, §3, §4

[9] = system: LNCaP (p53+/+) androgen-responsive prostate cancer cells; test: MTT cell viability assay; type: cell-based, human; conditions: 24-h exposure
From the text: as §2, §3, §4

Structure (SMILES): O=[N+]([O-])c1cc(S(=O)(=O)n2cc(CO)c3ccccc32)ccc1Cl [OSU-A9, [1-(3′-nitro-4′-chlorobenzenesulfonyl)-1H-indol-3-yl]-methanol]
- increase in intratumoral phospho-p38 (phospho-p38; 10 mg/kg per day): 9.0±3.5 fold
- increase in intratumoral phospho-p38 (phospho-p38; 25 mg/kg per day): 10.1±2.4 fold
- reduction in intratumoral Bcl-xL (Bcl-xL; 10 mg/kg per day): 34±8%
- reduction in intratumoral Bcl-xL (Bcl-xL; 25 mg/kg per day): 86±4%
- reduction in intratumoral phospho-Akt compared to vehicle-treated controls (phospho-Akt; 10 mg/kg per day): 83±8%
- reduction in intratumoral phospho-Akt compared to vehicle-treated controls (phospho-Akt; 25 mg/kg per day): 94±1%
- increase in intratumoral p27 (p27; 10 mg/kg per day): 1.8±0.3 fold
- increase in intratumoral p27 (p27; 25 mg/kg per day): 2.7±1.4 fold
- reduction in intratumoral cyclin D1 (cyclin D1; 10 mg/kg per day): 70±3%
- reduction in intratumoral cyclin D1 (cyclin D1; 25 mg/kg per day): 88±3%
- weight loss [1]: No apparent weight loss
- PPARγ transactivation (PPARγ): lacked appreciable activity
- lower sensitivity of PrECs than the prostate cancer cells ([2]; PrEC IC50 versus PC-3 and LNCaP IC50): 2.2-4.5 fold
- IC50 ([2]; PrECs, MTT assay): 9 µM
- concentration that completely suppressed cell proliferation (PC-3 cells [3]): ≥ 2.5 µM
- concentration that completely suppressed cell proliferation (LNCaP cells): ≥ 2.5 µM
- phosphorylation of Akt and its substrates GSK3b and Bad [4]: dose-dependent dephosphorylation
- phosphorylation of ERKs, JNK, and p38 [4]: increased phosphorylation
- expression of Bax, p27, and p21 [4]: up-regulating the expression
- chemical stability in 0.1 N HCl, CH2OH proton signal by NMR [5]: no appreciable change
- body weight compared to vehicle-treated controls [6]: without significant loss of body weight
- hematological and serum chemistry findings [6]: normal hematological and serum chemistry findings
- overt toxicity / tolerability [6]: well-tolerated; also recorded: without overt signs of toxicity
- lesions observed at necropsy ([6]; limited to peritoneal surfaces): mild to moderate amounts of fibrous adhesions
- microscopic lesions in tissues examined ([6]; with the exception of the affected peritoneum): no treatment-associated lesions; also recorded: no significant lesions
- morphological changes, light microscopy (PC-3 cells [7]; 5 μM, 24 h): pronounced morphological changes
- caspase-3 activation and PARP cleavage (PC-3 cells [7]): dose-dependent effect
- apoptosis-inducing potency versus indole-3-carbinol (PC-3 cells [7]; caspase-3 activation and PARP cleavage): 100 fold

Structure (SMILES): OCc1c[nH]c2ccccc12 [indole-3-carbinol]
- concentration that completely suppressed cell proliferation (PC-3 cells [3]): at least 300 μM
- concentration that completely suppressed cell proliferation (LNCaP cells): at least 300 μM
- AR expression (androgen receptor (AR)): neither agents had an appreciable effect
- phosphorylation of Akt and its substrates GSK3b and Bad [4]: dose-dependent dephosphorylation
- phosphorylation of ERKs, JNK, and p38 [4]: increased phosphorylation
- expression of Bax, p27, and p21 [4]: up-regulating the expression
- chemical stability in 0.1 N HCl, CH2OH proton signal by NMR [5]: immediate shift of the CH2 signal
- morphological changes, light microscopy (PC-3 cells [7]; 500 μM, 48 h): pronounced morphological changes
- caspase-3 activation and PARP cleavage (PC-3 cells [7]): dose-dependent effect
- IC50 [8]: 512 µM
- IC50 [9]: 267 µM
